Data: PMC8384680 (Journal of pharmaceutical and biomedical analysis, 2021)
pIC50: −log10 of the molar value. ≈ marks a conversion by molar mass, not a printed value.

What was measured:
[1] = Stability of JQ1 in microdialysate; assay type: physicochemical
[2] = Stability of primary stock solution; assay type: physicochemical; settings: stored at −80°C for 88-days, R.S.D ≤ 1.16%
BRD4(1) = settings: cell-free assays, ref [10], cited from earlier work
BRD4(2) = settings: cell-free assays, ref [10], cited from earlier work

Structure (SMILES): Cc1sc2c(c1C)C(c1ccc(Cl)cc1)=N[C@@H](CC(=O)OC(C)(C)C)c1nnc(C)n1-2 [JQ1]
- % Mean deviation ([1]; Bench-top 4C: 24h at 4°C, nominal 1.5 ng/mL): 5.96%
- % Mean deviation ([1]; Bench-top RT: 24h at room temperature, nominal 1.5 ng/mL): 3.23%
- % Mean deviation ([1]; Bench-top RT: 24h at room temperature, nominal 400 ng/mL): 5.26%
- % Mean deviation ([1]; Long-term: 21 days at −80°C, nominal 1.5 ng/mL): 12.83%
- % Mean deviation ([1]; Long-term: 21 days at −80°C, nominal 400 ng/mL): 5.62%
- % Mean deviation ([1]; Process: 48 h in auto sampler at 4°C, nominal 1.5 ng/mL): 0.46%
- % Mean deviation ([1]; Process: 48 h in auto sampler at 4°C, nominal 400 ng/mL): 1.39%
- Autosampler (post-extractive) stability (in words) ([1]; extracted quality control samples, microdialysate, autosampler 48 h): stable
- Freeze-thaw stability (in words) ([1]; microdialysate, three freeze-thaw cycles): no-stability related issues
- Short-term stability (in words) ([1]; spiked microdialysate, 24 h at 4°C and room temperature): stable
- Long-term stability (in words) ([1]; spiked microdialysate, −80°C for 21 days): confirmed
- % Mean deviation ([1]; three freeze-thaw cycles, nominal 1.5 ng/mL): 11.77%
- Stability of primary stock solution (in words) [2]: stable
- IC50 BRD4(1) (BRD4(1)): 0.0352 µg/mL (≈ 0.077 µM)
- pIC50 (BRD4(1); read-out: IC50 BRD4(1)): 7.11
- IC50 BRD4(2) (BRD4(2)): 0.0151 µg/mL (≈ 0.033 µM)
- pIC50 (BRD4(2); read-out: IC50 BRD4(2)): 7.48
